Reference: publication PMC6150379, “Novel Triazole Hybrids of Betulin: Synthesis and Biological Activity Profile” (Molecules : A Journal of Synthetic Chemistry and Natural …, 2017)
≈ marks a conversion by molar mass, not a printed value.

How the values were obtained:
[1] = test system: Colo-829 (human malignant melanoma); assay: Cytotoxic activity, WST-1 assay; assay type: cell-based; settings: Colo-829, 72 h, Neg = negative in the concentration used
[2] = test system: C-32 (human amelanotic melanoma); assay: Cytotoxic activity, WST-1 assay; assay type: cell-based; settings: C-32, 72 h, Neg = negative in the concentration used
[3] = test system: T47D (human ductal carcinoma); assay: Cytotoxic activity, WST-1 assay; assay type: cell-based; settings: for IC50 / IC50 ± SD: 72 h, Neg = negative in the concentration used; for potency relative to cisplatin: ratio of IC50 values
[4] = test system: MCF-7 (human adenocarcinoma); assay: Cytotoxic activity, WST-1 assay; assay type: cell-based; settings: MCF-7, 72 h, Neg = negative in the concentration used
SNB-19 (glioblastoma) = assay: Cytotoxic activity, WST-1 assay; assay type: cell-based, human; settings: SNB-19, 72 h, Neg = negative in the concentration used
[5] = test system: SKOV-3 human ovarian cancer cell line; assay: Inhibition of tumor cell proliferation (MTT); settings: SK-OV-3, 96 h, read-out: Max. Inhibition (% of Control)
Procedure: Antiproliferative activities of the compounds were measured by the MTT assay using A549 cells and a human ovarian cancer cell line SKOV-3 (adenocarcinoma ATCC® HTB77™). A total of 2 × 10^3 cells in DMEM medium supplemented with 5% FBS were placed in each well of a 96-well flat-bottom plate. After 24 h of incubation at 37 °C in 5% CO2, the growth medium was replaced by media containing different concentrations of the derivatives. Control cultures received cisplatin 0.1–10 μg/mL, and blank wells contained 100 μL of growth medium with no cells. After 96 h of incubation, cell proliferation was determined by the colorimetric MTT assay (570 nm) reading for each concentration compared with the control. At least three replicates for each sample were used to determine the cell proliferation.

[6] = test system: cytopathogenic bovine orphan virus (ECBO) strain LCR-4; assay: Time of addition assay (post-adsorption), CPE/MTT in A549 cells; assay type: cell-based, cytopathogenic bovine orphan virus (BEV-1); settings: for EC50: A549; for SI: selectivity index, ratio of CC50 to EC50, ECBO in A549 cells
in vitro = settings: human
Procedure: The cytotoxic effect of compounds on A549 cells was determined by the MTT method, as previously described [36]. The MTT assay is the enzyme-based method, which use the 3-(4,5-dimethylthiazol-2-yl)-2,5-diphenyltetrazolium bromide as a reductive coloring agent. Briefly, subconfluent monolayers of A549 cells (2 × 10^4 cell/well in Dulbecco’s Minimal Essential Medium (DMEM) supplemented with 5% fetal bovine serum (FBS), antibiotics (100 U/mL penicillin and 100 μg/mL streptomycin), and 2 mM L-glutamine (all from Sigma Aldrich, St. Louis, MO, USA) were incubated in 96-multi-well plates in the presence of dilutions of the compounds ranging from 100 μg/mL to 0.5 μg/mL, in triplicate for 48 h at 37 °C in a humidified atmosphere with 5% CO2. After 48 h, 20 μL of MTT solution (Promega, Madison, WI, USA) was added to each well, and the microplates were kept at 37 °C/5% CO2 for 3 h. Then, the solubilization/stop solution containing SDS-HCl (100 μL/well) was added, and the absorbance values of the wells were measured at 570 nm using a 96-well plate reader (Multiskan RC spectrophotometer, Thermo Labsystems, Waltham, MA, USA). Cell viability (%) was calculated for each concentration as Abs treated/Abs control × 100, where Abs treated and Abs control are the absorbance readings for the wells with and without the tested compounds, respectively. The 50% cytotoxic concentration (CC50) was defined as the concentration that reduced cell viability by 50% with respect to controls without drugs. The CC50 value was calculated from the corresponding dose–response curves.

Row | SMILES | IC50 ([1]; Homo sapiens) [µM] | IC50 ± SD [2] | IC50 ([3]; Homo sapiens) [µM] | IC50 ([4]; Homo sapiens, MCF7) [µM] | melting point [°C] | IC50 (SNB-19 (glioblastoma); Homo sapiens) [µM] | IC50 ± SD [4] | further results
1 | N.N.[Cl][Pt][Cl] [Cisplatin, reference compound] |  |  |  |  |  |  |  | IC50 [1]: 16.8 ± 1.7 µM; IC50 [2]: 12.3 ± 2.1 µM; IC50 [3]: 24.9 ± 1.1 µM; IC50 [4]: 5.5 ± 1 µM; IC50 (SNB-19 (glioblastoma)): 2.3 ± 0.05 µM
2 | C=C(C)C1CC[C@]2(COC(=O)c3cn(Cc4ccccc4)nn3)CC[C@]3(C)C(CCC4[C@@]5(C)CC[C@H](O)C(C)(C)C5CC[C@]43C)C12 (stereo partly drawn) [Compound 5a, 28-O-(1-Benzyl-1H-1,2,3-triazol-4-yl)carbonylbetulin] | 78.5 ± 8.3 | Neg | 10.5 ± 0.09 | 58.8 ± 1.5 | 169 to 171 | 96.2 ± 1.2 |  | inhibition at 25 µg/mL [5]: 40%
3 | C=C(C)C1CC[C@]2(COC(=O)c3cn(Cc4ccc(F)cc4)nn3)CC[C@]3(C)C(CCC4[C@@]5(C)CC[C@H](O)C(C)(C)C5CC[C@]43C)C12 (stereo partly drawn) [Compound 5b, 28-O-[1-(4-Fluorobenzyl)-1H-1,2,3-triazol-4-yl]carbonylbetulin] | 129 ± 7.7 | Neg | 8.5 ± 0.02 |  | 144 to 147 | 66.1 ± 0.7 | Neg | inhibition at 10 µg/mL [5]: 40%
4 | C=C(C)C1CC[C@]2(COC(=O)c3cn(Cc4ccc(C#N)cc4)nn3)CC[C@]3(C)C(CCC4[C@@]5(C)CC[C@H](O)C(C)(C)C5CC[C@]43C)C12 (stereo partly drawn) [Compound 5c, 28-O-[1-(4-Cyanobenzyl)-1H-1,2,3-triazol-4-yl]carbonylbetulin] | 9.7 ± 0.1 | Neg | 1.4 ± 0.01 |  | 225 to 228 | 0.7 ± 0.08 | Neg | 
5 | C=C(C)C1CC[C@]2(COC(=O)c3cn(CSc4ccccc4)nn3)CC[C@]3(C)C(CCC4[C@@]5(C)CC[C@H](O)C(C)(C)C5CC[C@]43C)C12 (stereo partly drawn) [Compound 5d, 28-O-(1-Phenylthiomethyl-1H-1,2,3-triazol-4-yl)carbonylbetulin] | 100 ± 5.5 | Neg | 52.5 ± 1.4 |  | 143 to 146 | 13 ± 0.09 | Neg | inhibition at 10 µg/mL [5]: 40%
6 | C=C(C)C1CC[C@]2(COC(=O)c3cn(CC(=O)OCC)nn3)CC[C@]3(C)C(CCC4[C@@]5(C)CC[C@H](O)C(C)(C)C5CC[C@]43C)C12 (stereo partly drawn) [Compound 5g, 28-O-(1-Ethylacetyl-1H-1,2,3-triazol-4-yl)carbonylbetulin] | 11.4 ± 0.2 | Neg | 135 ± 2.6 |  | 176 to 181 | 92.3 ± 0.9 | Neg | 
7 | C=C(C)C1CC[C@]2(COC(=O)c3cn(CCCO)nn3)CC[C@]3(C)C(CCC4[C@@]5(C)CC[C@H](O)C(C)(C)C5CC[C@]43C)C12 (stereo partly drawn) [Compound 5h, 28-O-[1-(3-Hydroxypropyl)-1H-1,2,3-triazol-4-yl]carbonylbetulin] | 6.2 ± 0.6 |  | 1.3 ± 0.05 | 15.5 ± 1.1 |  | 9.9 ± 0.7 |  | IC50 ([2]; Homo sapiens): 80.3 ± 5.8 µM; potency relative to cisplatin [3]: 19 fold; EC50 [6]: 0.5 mg/L (≈ 0.839 µM); SI [6]: 55.5; CC50 at 48 h (in vitro): 27.7 mg/L (≈ 46.5 µM)
8 | C=C(C)C1CC[C@]2(COC(=O)c3cn(CCCN)nn3)CC[C@]3(C)C(CCC4[C@@]5(C)CC[C@H](O)C(C)(C)C5CC[C@]43C)C12 (stereo partly drawn) [Compound 5i, 28-O-[1-(3-Aminopropyl)-1H-1,2,3-triazol-4-yl]carbonylbetulin] | 0.6 ± 0.13 |  | 3.63 ± 0.3 | 6.94 ± 0.8 | 156 to 160 | 0.9 ± 0.03 |  | IC50 ([2]; Homo sapiens): 7.9 ± 0.9 µM
9 | C=C(C)C1CC[C@]2(COC(=O)c3cn(C(C(=O)O)C(C)C)nn3)CC[C@]3(C)C(CCC4[C@@]5(C)CC[C@H](O)C(C)(C)C5CC[C@]43C)C12 (stereo partly drawn) [Compound 5k] | 8.7 ± 0.5 |  | 7.2 ± 0.2 | 37.2 ± 0.7 | 293 to 297 | 6.3 ± 0.9 |  | IC50 ([2]; Homo sapiens): 46.9 ± 2.5 µM
10 | C=C(C)C1CC[C@]2(COC(=O)c3cn(Cc4ccccc4)nn3)CC[C@]3(C)C(CCC4[C@@]5(C)CC[C@H](OC(=O)c6cn(Cc7ccccc7)nn6)C(C)(C)C5CC[C@]43C)C12 (stereo partly drawn) [Compound 6a, 3,28-O,O’-Di[(1-benzyl-1H-1,2,3-triazol-4-yl)carbonyl]betulin] | 80.7 ± 1.8 | Neg |  |  | 117 to 120 | 24.4 ± 1.3 | Neg | IC50 ± SD [3]: Neg
11 | C=C(C)C1CC[C@]2(COC(=O)c3cn(Cc4ccc(F)cc4)nn3)CC[C@]3(C)C(CCC4[C@@]5(C)CC[C@H](OC(=O)c6cn(Cc7ccc(F)cc7)nn6)C(C)(C)C5CC[C@]43C)C12 (stereo partly drawn) [Compound 6b, 3,28-O,O’-Di[1-(4-fluorobenzyl-1H-1,2,3-triazol-4-yl)carbonyl]betulin] |  | Neg | 0.05 ± 0.01 | 0.09 ± 0.01 | 155 to 158 | 0.08 ± 0.01 |  | IC50 ± SD [1]: Neg; potency relative to cisplatin [3]: 500 fold
12 | C=C(C)C1CC[C@]2(COC(=O)c3cn(Cc4ccc(C#N)cc4)nn3)CC[C@]3(C)C(CCC4[C@@]5(C)CC[C@H](OC(=O)c6cn(Cc7ccc(C#N)cc7)nn6)C(C)(C)C5CC[C@]43C)C12 (stereo partly drawn) [Compound 6c, 3,28-O,O’-Di[1-(4-cyanobenzyl-1H-1,2,3-triazol-4-yl)carbonyl]betulin] |  | Neg | 1.1 ± 0.01 | 60.7 ± 0.6 |  | 0.06 ± 0.01 |  | IC50 ± SD [1]: Neg
13 | C=C(C)C1CC[C@]2(COC(=O)c3cn(CSc4ccccc4)nn3)CC[C@]3(C)C(CCC4[C@@]5(C)CC[C@H](OC(=O)c6cn(CSc7ccccc7)nn6)C(C)(C)C5CC[C@]43C)C12 (stereo partly drawn) [Compound 6d, 3,28-O,O’-Di[(1-phenylthiomethyl-1H-1,2,3-triazol-4-yl)carbonyl]betulin] | 103 ± 4.7 |  | 0.9 ± 0.05 | 0.9 ± 0.08 | 127 to 131 | 0.5 ± 0.02 |  | IC50 ([2]; Homo sapiens): 100 ± 2.8 µM
14 | C=C(C)C1CCC2(COC(=O)c3cn(C4CC(n5cc(C)c(=O)[nH]c5=O)OC4CO)nn3)CCC3(C)C(CCC4C5(C)CCC(OC(=O)c6cn(C7CC(n8cc(C)c(=O)[nH]c8=O)OC7CO)nn6)C(C)(C)C5CCC43C)C12 (stereo not drawn) [Compound 6e, 3,28-O,O’-Di[1-(3′-deoxythymidine-5′-yl-1H-1,2,3-triazol-4-yl)carbonyl]betulin] |  | total decay of cytotoxic effect and Neg |  |  | 224 to 227 |  | total decay of cytotoxic effect and Neg | IC50 ± SD [1]: total decay of cytotoxic effect and Neg; IC50 ± SD [3]: total decay of cytotoxic effect and Neg; IC50 ± SD (SNB-19 (glioblastoma)): total decay of cytotoxic effect and Neg
15 | C=C(C)C1CCC2(COC(=O)c3cn(C4OC(CO)C(O)C(O)C4O)nn3)CCC3(C)C(CCC4C5(C)CCC(OC(=O)c6cn(C7OC(CO)C(O)C(O)C7O)nn6)C(C)(C)C5CCC43C)C12 [Compound 6f, 3,28-O,O’-Di[1-(1-deoxy-β-D-glucopyranosyl-1H-1,2,3-triazol-4-yl)carbonyl]betulin] |  | total decay of cytotoxic effect and Neg |  |  |  |  | total decay of cytotoxic effect and Neg | IC50 ± SD [1]: total decay of cytotoxic effect and Neg; IC50 ± SD [3]: total decay of cytotoxic effect and Neg; EC50 [6]: 5 mg/L (≈ 5.22 µM); SI [6]: 20.0; CC50 at 48 h (in vitro): 100 mg/L (≈ 104 µM); IC50 ± SD (SNB-19 (glioblastoma)): total decay of cytotoxic effect and Neg
16 | C=C(C)C1CC[C@]2(COC(=O)c3cn(CC(=O)OCC)nn3)CC[C@]3(C)C(CCC4[C@@]5(C)CC[C@H](OC(=O)c6cn(CC(=O)OCC)nn6)C(C)(C)C5CC[C@]43C)C12 (stereo partly drawn) [Compound 6g, 3,28-O,O’-Di-[(1-ethylacetyl-1H-1,2,3-triazol-4-yl)carbonyl]betulin] | 97.6 ± 3.3 | Neg |  |  |  |  | Neg | IC50 ± SD [3]: Neg; IC50 ± SD (SNB-19 (glioblastoma)): Neg
